Results as given in US4859668A, “Method of inhibiting the growth of melanin-pigmented cells” (North Carolina State University, priority 1988, dated 1989).

Assays:
L929 = test: cells; conditions: Mus musculus, L929, read-out: Growth inhibition, Theo. Alone vs. control
HFH-LP and HFH-HP = test: Pigmentation and growth of cells exposed to theophylline, HFH-LP and HFH-HP; type: cell-based, mouse; conditions: theophylline exposure
Procedure: (§1) Single cell suspensions were prepared as described above. Twenty-four hours after seeding, the cells were exposed to either (a) culture medium alone, or (b) culture medium containing 0.5 mM theophylline.

RPMI-1641 [1] = conditions: lightly pigmented RPMI 1641
Source text: (§2) These cell cultures include low passage HFH (HFH-LP), a pigmented line derived from the B-16 mouse melanoma, and NP, an amelanotic clone of HFH-LP. High passage HFH (HFH-HP) was derived from HFH-LP after 30 passages in vitro. […] These cell cultures further include Cloudman S91 mouse melanoma, RPMI 1846 (a Syrian hamster melanoma), baby hamster kidney (BHK) and Chinese hamster ovary (CHO). These cells were maintained as monolayers in Corning plastic flasks in Minimum Essential Medium (Eagle) with Earle's salts supplemented with 10% fetal bovine serum, 100 units of penicillin, 100 mg of streptomycin and 5 mg of amphotericin B per ml in 5% CO2 humidified air at 37° C.
as §1
(§3) The values given are the mean from 6 replicates.

HFH-HP = test: cells; conditions: Mus musculus, read-out: Growth inhibition, Theo. Alone vs. control
Source text: as §2, §1, §3

RPMI-1641 [2] = test: cells; conditions: read-out: Growth inhibition, Theo. Alone vs. control
Source text: as §2, §1, §3

NP = test: cells; conditions: Mus musculus, read-out: Growth inhibition, Theo. Alone vs. control
Source text: as §2, §1, §3

BHK = test: cells; conditions: Mesocricetus auratus, read-out: Growth inhibition, Theo. Alone vs. control
Source text: as §2, §1, §3

HFH-LP = test: cells; conditions: Mus musculus, read-out: Growth inhibition, Theo. Alone vs. control
Source text: as §2, §1, §3

[3] = test system: Unpigmented NP, CHO and mouse fibroblast L929 cells; test: Enhancement of toxicity by theophylline pretreatment, unpigmented cells; type: cell-based, mouse; Chinese hamster
Procedure: Twenty-four hours after seeding, the cells were exposed to either (a) culture medium alone, or (b) culture medium containing 0.5 mM theophylline.

RPMI 1946 cells = test: Pigmentation and growth of cells exposed to theophylline, RPMI 1946; type: cell-based, Syrian hamster; conditions: theophylline exposure
Procedure: as §1

## Cn1c(=O)c2[nH]cnc2n(C)c1=O [theophylline, reference compound]
L929
  inhibition at 500 µM: -87%
HFH-LP and HFH-HP
  growth rate of the cells: decreased
  pigmentation of the treated cells: visible increase in pigmentation
RPMI-1641 [1]
  sensitization to morpholine: sensitized the lightly pigmented RPMI 1641 cell line to morpholine
HFH-HP
  inhibition at 500 µM: 40%
RPMI-1641 [2]
  inhibition at 500 µM: 35%
NP
  inhibition at 500 µM: 11%
BHK
  inhibition at 500 µM: 20%
HFH-LP
  inhibition at 500 µM: 35%
[3]
  effect of theophylline pretreatment on unpigmented cells: remained unaffected
RPMI 1946 cells
  growth rate: similarly affected
  pigmentation: no visible change in pigmentation
